ChEMBL document CHEMBL5150065, “Design, synthesis, and bioevaluation of imidazo [1,2-a] pyrazine derivatives as tubulin polymerization inhibitors with potent anticancer activities” (Bioorg Med Chem, 2022)
Activity calls are given as the source filed them. The calls are words filed in the database; no cut-off is given here.

Legend:
[1] = test system: HepG2; assay: Antiproliferative activity against human HepG2 cells assessed as inhibition of cell growth incubated for 48 hrs by MTT assay; format: functional, cell-based; settings: HepG2, 48 h
[2] = test system: MDA-MB-231; assay: Antiproliferative activity against human MDA-MB-231 cells assessed as inhibition of cell growth incubated for 48 hrs by MTT assay; format: functional, cell-based; settings: MDA-MB-231, 48 h
[3] = test system: A549; assay: Antiproliferative activity against human A549 cells assessed as inhibition of cell growth incubated for 48 hrs by MTT assay; format: functional, cell-based; settings: A549, 48 h
[4] = test system: HCT-116; assay: Antiproliferative activity against human HCT-116 cells assessed as inhibition of cell growth incubated for 48 hrs by MTT assay; format: functional, cell-based; settings: HCT-116, 48 h
[5] = test system: HCT-116; assay: Induction of cell cycle arrest in human HCT-116 cells assessed as G1 phase cells at 80 nM measured after 48 hrs by propidium iodide/RNase staining based flow cytometry analysis (reference value: 61.51 %); format: functional
[6] = test system: HCT-116; assay: Induction of cell cycle arrest in human HCT-116 cells assessed as increase in G2/M phase cells at 20 nM measured after 48 hrs by propidium iodide/RNase staining based flow cytometry analysis (reference value: […] %); format: functional
[7] = test system: HCT-116; assay: Inhibition of cell migration in human HCT-116 cells assessed as suppression of wound closure at 40 nM incubated for 48 hrs by wound healing assay relative to control; format: functional
[8] = test system: HCT-116; assay: Induction of cell cycle arrest in human HCT-116 cells assessed as increase in G2/M phase cells at 40 nM measured after 48 hrs by propidium iodide/RNase staining based flow cytometry analysis (reference value: […] %); format: functional
[9] = test system: HCT-116; assay: Induction of cell cycle arrest in human HCT-116 cells assessed as G1 phase cells at 40 nM measured after 48 hrs by propidium iodide/RNase staining based flow cytometry analysis (reference value: 61.51 %); format: functional
[10] = test system: HCT-116; assay: Inhibition of cell migration in human HCT-116 cells assessed as suppression of wound closure at 20 nM incubated for 48 hrs by wound healing assay relative to control; format: functional
[11] = test system: HCT-116; assay: Inhibition of cell migration in human HCT-116 cells assessed as suppression of wound closure at 10 nM incubated for 48 hrs by wound healing assay relative to control; format: functional
[12] = test system: HCT-116; assay: Inhibition of cell migration in human HCT-116 cells assessed as suppression of wound closure at 80 nM incubated for 48 hrs by wound healing assay relative to control; format: functional
[13] = test system: HCT-116; assay: Induction of apoptosis in human HCT-116 cells assessed as total apoptotic cells at 120 nM incubated for 48 hrs by Annexin-V FITC/PI staining based flow cytometry analysis (reference value: 5.76 %); format: functional
[14] = test system: HCT-116; assay: Induction of cell cycle arrest in human HCT-116 cells assessed as G1 phase cells at 20 nM measured after 48 hrs by propidium iodide/RNase staining based flow cytometry analysis (reference value: 61.51 %); format: functional
[15] = test system: HCT-116; assay: Induction of cell cycle arrest in human HCT-116 cells assessed as increase in G2/M phase cells at 120 nM measured after 48 hrs by propidium iodide/RNase staining based flow cytometry analysis (reference value: […] %); format: functional
[16] = test system: HCT-116; assay: Induction of apoptosis in human HCT-116 cells assessed as total apoptotic cells at 40 nM incubated for 48 hrs by Annexin-V FITC/PI staining based flow cytometry analysis (reference value: 5.76 %); format: functional
[17] = biological target: T1, Tubulin (Homo sapiens) (UniProt P68371+Q9H4B7+P0DPH7+P68366+Q13509+Q71U36+P04350+Q3ZCM7+P07437+P68363+Q9BQE3+Q6PEY2+Q13885+Q9BVA1+Q9BUF5); assay: Induction of microtubule disruption in human HCT-116 cells assessed as disintegrated microtubules at 20 to 60 nM incubated for 48 hrs by DAPI staining based confocal microscopic immunofluorescence analysis; format: cell-based; settings: dose 20-60 nM
[18] = test system: HCT-116; assay: Induction of cell cycle arrest in human HCT-116 cells assessed as S phase cells at 20 nM measured after 48 hrs by propidium iodide/RNase staining based flow cytometry analysis (reference value: […] %); format: functional
[19] = test system: HCT-116; assay: Induction of cell cycle arrest in human HCT-116 cells assessed as S phase cells at 80 nM measured after 48 hrs by propidium iodide/RNase staining based flow cytometry analysis (reference value: […] %); format: functional
[20] = biological target: Tubulin (Sus scrofa, UniProt P02554+P02550); assay: (§1) Inhibition of pig brain tubulin polymerization in the presence of GTP by spectrophotometric analysis
[21] = biological target: Tubulin (Sus scrofa) (UniProt P02554+P02550); assay: as §1; settings: DDE = dose-dependent effect
Sequence of Tubulin (Sus scrofa) (P02550 whole entry, looked up): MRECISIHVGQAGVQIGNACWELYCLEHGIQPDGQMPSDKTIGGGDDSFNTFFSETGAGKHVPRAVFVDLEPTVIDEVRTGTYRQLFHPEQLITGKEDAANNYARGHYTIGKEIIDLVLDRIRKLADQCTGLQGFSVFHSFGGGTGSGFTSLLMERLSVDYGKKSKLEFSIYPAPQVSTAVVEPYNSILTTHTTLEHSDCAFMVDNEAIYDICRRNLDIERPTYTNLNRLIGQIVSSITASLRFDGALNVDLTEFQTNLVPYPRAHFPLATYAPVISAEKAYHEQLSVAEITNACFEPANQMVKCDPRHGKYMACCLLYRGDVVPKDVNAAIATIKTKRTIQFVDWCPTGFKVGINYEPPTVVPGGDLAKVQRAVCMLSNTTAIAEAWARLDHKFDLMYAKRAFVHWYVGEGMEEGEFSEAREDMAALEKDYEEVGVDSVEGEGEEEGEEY
Sequence of Tubulin (Sus scrofa) (P02554 whole entry, looked up): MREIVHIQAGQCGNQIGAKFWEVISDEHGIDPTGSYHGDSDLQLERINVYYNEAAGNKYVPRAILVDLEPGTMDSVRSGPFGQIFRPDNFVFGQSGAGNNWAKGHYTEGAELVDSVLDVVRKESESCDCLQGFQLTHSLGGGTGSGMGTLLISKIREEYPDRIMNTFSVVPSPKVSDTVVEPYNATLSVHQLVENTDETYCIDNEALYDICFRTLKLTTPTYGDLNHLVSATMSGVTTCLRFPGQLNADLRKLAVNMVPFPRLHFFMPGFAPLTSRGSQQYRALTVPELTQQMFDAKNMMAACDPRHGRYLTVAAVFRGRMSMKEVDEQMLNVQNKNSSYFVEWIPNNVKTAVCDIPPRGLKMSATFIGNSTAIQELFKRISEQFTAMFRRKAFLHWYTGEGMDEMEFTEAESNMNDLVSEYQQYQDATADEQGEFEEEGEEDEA

[22] = test system: HCT-116; assay: Induction of cell cycle arrest in human HCT-116 cells assessed as G1 phase cells at 120 nM measured after 48 hrs by propidium iodide/RNase staining based flow cytometry analysis (reference value: 61.51 %); format: functional
[23] = test system: HCT-116; assay: Induction of apoptosis in human HCT-116 cells assessed as total apoptotic cells at 80 nM incubated for 48 hrs by Annexin-V FITC/PI staining based flow cytometry analysis (reference value: 5.76 %); format: functional
[24] = test system: HCT-116; assay: Induction of cell cycle arrest in human HCT-116 cells assessed as S phase cells at 40 nM measured after 48 hrs by propidium iodide/RNase staining based flow cytometry analysis (reference value: […] %); format: functional
[25] = biological target: T1, Tubulin (Homo sapiens); assay: Induction of microtubule disruption in human HCT-116 cells assessed as short microtubules at 20 to 60 nM incubated for 48 hrs by DAPI staining based confocal microscopic immunofluorescence analysis; format: cell-based; settings: dose 20-60 nM
[26] = test system: HCT-116; assay: Induction of apoptosis in human HCT-116 cells assessed as total apoptotic cells at 20 nM incubated for 48 hrs by Annexin-V FITC/PI staining based flow cytometry analysis (reference value: 5.76 %); format: functional
[27] = test system: HCT-116; assay: Induction of cell cycle arrest in human HCT-116 cells assessed as increase in G2/M phase cells at 80 nM measured after 48 hrs by propidium iodide/RNase staining based flow cytometry analysis (reference value: […] %); format: functional
[28] = test system: HCT-116; assay: Induction of cell cycle arrest in human HCT-116 cells assessed as S phase cells at 120 nM measured after 48 hrs by propidium iodide/RNase staining based flow cytometry analysis (reference value: […] %); format: functional

## COc1ccc(-c2cn3ccnc(-c4cc(OC)c(OC)c(OC)c4)c3n2)cc1N
[1]
  IC50: 123 nM
[2]
  IC50: 111 nM
[3]
  IC50: 309 nM
[4]
  IC50: 122 nM

## COc1ccn2cc(C(=O)c3cc(OC)c(OC)c(OC)c3)nc2c1
[1]
  IC50: 4140 nM
[2]
  IC50: > 10000 nM
[3]
  IC50: > 10000 nM
[4]
  IC50: 6520 nM

## COc1cc(-c2nccn3cc(-c4ccc(O)cc4)nc23)cc(OC)c1OC
[1]
  IC50: 823 nM
[2]
  IC50: > 10000 nM
[3]
  IC50: > 10000 nM
[4]
  IC50: 901 nM

## COc1cc(-c2nccn3cc(-c4ccc(F)cc4)nc23)cc(OC)c1OC
[1]
  IC50: 217 nM
[2]
  IC50: 401 nM
[3]
  IC50: 137 nM
[4]
  IC50: 263 nM

## COc1ccc(-c2cn3ccnc(-c4cc(OC)c(OC)c(OC)c4)c3n2)cc1
[1]
  IC50: 205 nM
[2]
  IC50: 105 nM
[3]
  IC50: 457 nM
[4]
  IC50: 191 nM

## COc1cc(-c2nccn3cc(-c4ccc5[nH]ccc5c4)nc23)cc(OC)c1OC
[5]
  Activity: 11.9%
[1]
  IC50: 146 nM
[6]
  Activity: 21.11%
[7]
  inhibition at 0.04 µM: 56.8%
[2]
  IC50: 74 nM
[8]
  Activity: 17.6%
[9]
  Activity: 60.42%
[10]
  inhibition at 0.02 µM: 55%
[11]
  inhibition at 0.01 µM: 30.8%
[12]
  inhibition at 0.08 µM: 60.6%
[13]
  Activity: 50.07%
[14]
  Activity: 61.42%
[15]
  Activity: 79.67%
[16]
  Activity: 29.53%
[17]
  Activity: Active
[18]
  Activity: 17.47%
[19]
  Activity: 8.87%
[3]
  IC50: 154 nM
[20]
  IC50: 45700 nM
[21]
  inhibition: Dde
[22]
  Activity: 8.17%
[23]
  Activity: 37.2%
[24]
  Activity: 21.98%
[25]
  Activity: Active
[4]
  IC50: 23 nM
[26]
  Activity: 6.25%
[27]
  Activity: 79.23%
[28]
  Activity: 12.16%

## COc1cc(C(=O)c2cn3ccc(F)cc3n2)cc(OC)c1OC
[1]
  IC50: > 10000 nM
[2]
  IC50: > 10000 nM
[3]
  IC50: > 10000 nM
[4]
  IC50: > 10000 nM

## COc1cc(C(=O)c2cn3ccc(C)c([N+](=O)[O-])c3n2)cc(OC)c1OC
[1]
  IC50: > 10000 nM
[2]
  IC50: > 10000 nM
[3]
  IC50: > 10000 nM
[4]
  IC50: > 10000 nM

## COc1cc(-c2nccn3cc(-c4ccc(C)cc4)nc23)cc(OC)c1OC
[1]
  IC50: 160 nM
[2]
  IC50: 53 nM
[3]
  IC50: 135 nM
[4]
  IC50: 74 nM

## COc1cc(-c2nccn3cc(-c4ccccc4)nc23)cc(OC)c1OC
[1]
  IC50: 267 nM
[2]
  IC50: 364 nM
[3]
  IC50: 378 nM
[4]
  IC50: 266 nM

## COc1cc(C(=O)c2cn3cc(Cl)cc(C(F)(F)F)c3n2)cc(OC)c1OC
[1]
  IC50: > 10000 nM
[2]
  IC50: > 10000 nM
[3]
  IC50: > 10000 nM
[4]
  IC50: > 10000 nM

## COc1cc(C(=O)c2cn3c(C(C)C)cccc3n2)cc(OC)c1OC
[1]
  IC50: > 10000 nM
[2]
  IC50: > 10000 nM
[3]
  IC50: > 10000 nM
[4]
  IC50: > 10000 nM

## COc1cc(-c2nccn3cc(-c4ccc(N)cc4)nc23)cc(OC)c1OC
[1]
  IC50: 252 nM
[2]
  IC50: 294 nM
[3]
  IC50: 287 nM
[4]
  IC50: 158 nM
